Laboratory results published in PubChem BioAssay AID1259407 (Chemical Carcinogenesis Research Information System (CCRIS), 2018).
The source made the active and inactive calls. The rule behind the calls is not given here.

System: CCRIS mutagenicity, Ames/micronucleus/aberration tests
Assay: CCRIS mutagenicity studies
[1] = Test System: AMES SALMONELLA TYPHIMURIUM, Strain/Indicator: TA100, Metabolic Activation: NONE, Method: PREINCUBATION
[2] = Test System: AMES SALMONELLA TYPHIMURIUM, Strain/Indicator: TA100, Metabolic Activation: NONE, Method: STANDARD PLATE
[3] = Test System: AMES SALMONELLA TYPHIMURIUM, Strain/Indicator: TA98, Metabolic Activation: NONE, Method: PREINCUBATION
[4] = Test System: AMES SALMONELLA TYPHIMURIUM, Strain/Indicator: TA98, Metabolic Activation: RAT, LIVER, S-9, PCB, Method: PREINCUBATION
[5] = Test System: AMES SALMONELLA TYPHIMURIUM, Strain/Indicator: TA100, Metabolic Activation: RAT, LIVER, S-9, PCB, Method: PREINCUBATION
[6] = Test System: AMES SALMONELLA TYPHIMURIUM, Strain/Indicator: TA98, Metabolic Activation: NONE, Method: STANDARD PLATE
[7] = Test System: AMES SALMONELLA TYPHIMURIUM, Strain/Indicator: TA100, Metabolic Activation: RAT, LIVER, S-9, AROCLOR 1254, Method: STANDARD PLATE

With `Cc1nc(N)cc2[nH]c3ccccc3c12` the mutagenic call (Test System: AMES SALMONELLA TYPHIMURIUM, Strain/Indicator: TA98, Metabolic Activation: HUMAN, BLOOD, CYTOSOL, Method: PREINCUBATION) was “active; positive”, the mutagenic call (Test System: AMES SALMONELLA TYPHIMURIUM, Strain/Indicator: TA98, Metabolic Activation: MOUSE, LIVER, HEPATOCYTES) was “active; positive” and the mutagenic call (Test System: AMES SALMONELLA TYPHIMURIUM, Strain/Indicator: TA98, Metabolic Activation: MOUSE, LIVER, HEPATOCYTES, 2,3,7,8-TETRACHLORODIBENZO-P-DIOXIN) was “active; positive”. The mutagenic call (Test System: AMES SALMONELLA TYPHIMURIUM, Strain/Indicator: TA98, Metabolic Activation: MOUSE, LIVER, MICROSOMES) was “active; positive”, the mutagenic call (Test System: AMES SALMONELLA TYPHIMURIUM, Strain/Indicator: TA98, Metabolic Activation: MOUSE, LIVER, MICROSOMES, 2,3,7,8-TETRACHLORODIBENZO-P-DIOXIN) was “active; positive” and the mutagenic call (Test System: AMES SALMONELLA TYPHIMURIUM, Strain/Indicator: TA98, Metabolic Activation: MOUSE, LIVER, MICROSOMES, TCDD, Method: STANDARD PLATE) was “active; positive”. The mutagenic call (Test System: AMES SALMONELLA TYPHIMURIUM, Strain/Indicator: TA98, Metabolic Activation: MOUSE, LIVER, MICROSOMES, Method: STANDARD PLATE) was “active; positive”, the mutagenic call (Test System: AMES SALMONELLA TYPHIMURIUM, Strain/Indicator: TA98, Metabolic Activation: RAT, BLADDER, S-9, PCB, Method: FLUCTUATION TEST) was “active; positive” and the mutagenic call (Test System: AMES SALMONELLA TYPHIMURIUM, Strain/Indicator: TA98, Metabolic Activation: RAT, HEPATOCYTES, AROCLOR 1254, Method: PREINCUBATION) was “active; positive”. For the same compound, the mutagenic call (Test System: AMES SALMONELLA TYPHIMURIUM, Strain/Indicator: TA98, Metabolic Activation: RAT, LIVER, S-9, AROCLOR 1254, Method: PREINCUBATION) was “active; positive”, the mutagenic call (Test System: AMES SALMONELLA TYPHIMURIUM, Strain/Indicator: TA100, Metabolic Activation: RAT, BLADDER, S-9, PCB, Method: FLUCTUATION TEST) was “active; positive” and the mutagenic call (Test System: AMES SALMONELLA TYPHIMURIUM, Strain/Indicator: TA100, Metabolic Activation: RAT, LIVER, S-9, AROCLOR 1254, Method: PREINCUBATION) was “inactive; negative”. For the same compound, the mutagenic call (Test System: AMES SALMONELLA TYPHIMURIUM, Strain/Indicator: YG1019, Metabolic Activation: RAT LIVER S-9, AROCLOR, Method: PREINCUBATION) was “active; positive”, the mutagenic call (Test System: UDS HAMSTER HEPATOCYTES, Strain/Indicator: THY INCORP, Metabolic Activation: NONE, Method: LIQUID SCINTILLATION COUNTING) was “inactive; negative” and the mutagenic call (Test System: UDS RAT HEPATOCYTES, Strain/Indicator: THY INCORP, Metabolic Activation: NONE, Method: LIQUID SCINTILLATION COUNTING) was “inactive; negative”.

`c1ccc(-c2ccc(CC3CO3)cc2)cc1` (stereo unspecified) was tested, and the mutagenic call [1] was “active; positive”, the mutagenic call [2] was “active; positive” and the mutagenic call (Test System: AMES SALMONELLA TYPHIMURIUM, Strain/Indicator: TA1535, Metabolic Activation: NONE, Method: PREINCUBATION) was “active; positive”. For the same compound, the mutagenic call (Test System: AMES SALMONELLA TYPHIMURIUM, Strain/Indicator: TA1535, Metabolic Activation: NONE, Method: STANDARD PLATE) was “active; positive”.

`N#CC1=C(C#N)C(=O)C(Cl)=C(Cl)C1=O` was tested, and the mutagenic call [3] was “inactive; negative”, the mutagenic call (Test System: AMES SALMONELLA TYPHIMURIUM, Strain/Indicator: TA98, Metabolic Activation: RAT, LIVER, S-9, PHENOBARBITAL AND 5,6-BENZOFLAVONE, Method: PREINCUBATION) was “inactive; negative” and the mutagenic call [1] was “inactive; negative”. The mutagenic call (Test System: AMES SALMONELLA TYPHIMURIUM, Strain/Indicator: TA102, Metabolic Activation: NONE, Method: PREINCUBATION) was “inactive; negative”, the mutagenic call (Test System: AMES SALMONELLA TYPHIMURIUM, Strain/Indicator: TA102, Metabolic Activation: RAT, LIVER, S-9, PHENOBARBITAL AND 5,6-BENZOFLAVONE, Method: PREINCUBATION) was “inactive; negative” and the mutagenic call (Test System: AMES SALMONELLA TYPHIMURIUM, Strain/Indicator: TA104, Metabolic Activation: NONE, Method: PREINCUBATION) was “active; positive”. For the same compound, the mutagenic call (Test System: AMES SALMONELLA TYPHIMURIUM, Strain/Indicator: TA104, Metabolic Activation: RAT, LIVER, S-9, PHENOBARBITAL AND 5,6-BENZOFLAVONE, Method: PREINCUBATION) was “active; positive”, the mutagenic call (Test System: AMES SALMONELLA TYPHIMURIUM, Strain/Indicator: TA2637, Metabolic Activation: NONE, Method: PREINCUBATION) was “inactive; negative” and the mutagenic call (Test System: AMES SALMONELLA TYPHIMURIUM, Strain/Indicator: TA2637, Metabolic Activation: RAT, LIVER, S-9, PHENOBARBITAL AND 5,6-BENZOFLAVONE, Method: PREINCUBATION) was “active; positive”.

With `[O-][n+]1cccc2c1C=C[C@H]1O[C@@H]21` the mutagenic call [2] was “inactive; negative” and the mutagenic call (Test System: AMES SALMONELLA TYPHIMURIUM, Strain/Indicator: TA100, Metabolic Activation: RAT, LIVER, S-9, AROCLOR 1254 (10% OR 20%), Method: STANDARD PLATE) was “inactive; negative”.

With `CC(=O)Oc1ccc2c(CBr)cc(=O)oc2c1` the mutagenic call [3] was “inactive; negative”, the mutagenic call [4] was “inactive; negative” and the mutagenic call [1] was “inactive; negative”. For the same compound, the mutagenic call [5] was “inactive; negative” and the mutagenic call (Test System: E. COLI, Strain/Indicator: WP2 UVRA, Metabolic Activation: NONE, Method: PREINCUBATION) was “inactive; negative”.

For `CC1(C)C[C@@H]2[C@@]34C[C@]3(C(C=O)=C[C@]2(O)C1)[C@@H](O)OC4=O`, the mutagenic call [6] was “active; positive”, the mutagenic call [2] was “active; positive” and the mutagenic call (Test System: AMES SALMONELLA TYPHIMURIUM, Strain/Indicator: TA2637, Metabolic Activation: NONE, Method: STANDARD PLATE) was “active; positive”.

`O=S(=O)(O)NO` was tested, and the mutagenic call (Test System: AMES SALMONELLA TYPHIMURIUM, Strain/Indicator: G46, Metabolic Activation: RAT, LIVER, S-9, AROCLOR 1254, Method: STANDARD PLATE) was “inactive; negative” and the mutagenic call [7] was “inactive; negative”.

With `ClC1=C(Cl)[C@]2(Cl)C3C(Cl)C(Cl)CC3[C@@]1(Cl)C2(Cl)Cl` (stereo partly specified) the mutagenic call (Test System: AMES SALMONELLA TYPHIMURIUM, Strain/Indicator: TA100, Metabolic Activation: NONE, Method: DESICCATOR) was “active; positive”.

For `O=C(O)c1c(Cl)c(Cl)c(Cl)c(Cl)c1-c1c2cc(I)c(=O)c(I)c-2oc2c(I)c(O)c(I)cc12`, the mutagenic call (End Point: IN VIVO MICRONUCLEUS, Test System: BONE MARROW POLYCHROMATIC ERYTHROCYTES, Species: MOUSE, Strain/Sex: DDY/MALE, Route: IP) was “inactive; negative”.

In the case of `CCOc1cc(N=Nc2ccc(N(CC)CC)cc2)ccc1N=Nc1c(S(=O)(=O)O)cc2ccc(N)cc2c1O`, the mutagenic call [6] is reported as “inactive; negative”, the mutagenic call (Test System: AMES SALMONELLA TYPHIMURIUM, Strain/Indicator: TA98, Metabolic Activation: RAT, LIVER, S-9, AROCLOR 1254, Method: STANDARD PLATE) is reported as “active; positive” and the mutagenic call [2] is reported as “inactive; negative”. For the same compound, the mutagenic call [7] was “inactive; negative”, the mutagenic call (Test System: AMES SALMONELLA TYPHIMURIUM, Strain/Indicator: TA1538, Metabolic Activation: NONE, Method: STANDARD PLATE) was “inactive; negative” and the mutagenic call (Test System: AMES SALMONELLA TYPHIMURIUM, Strain/Indicator: TA1538, Metabolic Activation: RAT, LIVER, S-9, AROCLOR 1254, Method: STANDARD PLATE) was “active; positive”.

For `Nc1ccc(Oc2ccc(N)c(N)c2)cc1`, the mutagenic call [3] was “inactive; negative”, the mutagenic call [4] was “active; positive” and the mutagenic call [1] was “inactive; negative”. The mutagenic call [5] was “active; positive”.

`CCc1cccc2cccnc12` was tested, and the mutagenic call (Test System: AMES SALMONELLA TYPHIMURIUM, Strain/Indicator: TA100, Metabolic Activation: S-9, Method: PREINCUBATION) was “active; positive”.

For `COC1=CC(=O)c2c(nc(C)c3c2[nH]c2ccncc23)C1=O`, the mutagenic call (Test System: AMES SALMONELLA TYPHIMURIUM, Strain/Indicator: TA97A, Metabolic Activation: NONE, Method: STANDARD PLATE) was “active; positive”, the mutagenic call (Test System: AMES SALMONELLA TYPHIMURIUM, Strain/Indicator: TA97A, Metabolic Activation: RAT LIVER S-9, AROCLOR 1254, Method: STANDARD PLATE) was “inactive; negative” and the mutagenic call [6] was “active; positive”. For the same compound, the mutagenic call (Test System: AMES SALMONELLA TYPHIMURIUM, Strain/Indicator: TA98, Metabolic Activation: RAT LIVER S-9, AROCLOR 1254, Method: STANDARD PLATE) was “active; positive”, the mutagenic call [2] was “active; positive” and the mutagenic call (Test System: AMES SALMONELLA TYPHIMURIUM, Strain/Indicator: TA100, Metabolic Activation: RAT LIVER S-9, AROCLOR 1254, Method: STANDARD PLATE) was “active; positive”. For the same compound, the mutagenic call (Test System: AMES SALMONELLA TYPHIMURIUM, Strain/Indicator: TA102, Metabolic Activation: NONE, Method: STANDARD PLATE) was “active; positive” and the mutagenic call (Test System: AMES SALMONELLA TYPHIMURIUM, Strain/Indicator: TA102, Metabolic Activation: RAT LIVER S-9, AROCLOR 1254, Method: STANDARD PLATE) was “active; positive”.
